Source: patent US10730872B2, “Pesticidally active heterocyclic derivatives with sulphur containing sustitutents” (SYNGENTA PARTICIPATIONS AG, priority 2015, dated 2020)

What was measured:
Assay type in all cases: in vivo
Spodoptera littoralis = Spodoptera littoralis (Egyptian Cotton Leaf Worm), sprayed cotton leaf discs; settings: foliar, 72 h, application rate of 200 ppm, L1 larvae, 3 days after infestation
Procedure: Cotton leaf discs were placed onto agar in 24-well microtiter plates and sprayed with aqueous test solutions prepared from 10,000 ppm DMSO stock solutions. After drying the leaf discs were infested with five L1 larvae. The samples were assessed for mortality, anti-feeding effect, and growth inhibition in comparison to untreated samples 3 days after infestation. Control of Spodoptera littoralis by a test sample is given when at least one of the categories mortality, anti-feedant effect, and growth inhibition is higher than the untreated sample.

Myzus persicae [1] = assay: Myzus persicae (Green Peach Aphid): Feeding/Contact Activity; settings: foliar, 144 h, application rate of 200 ppm, sprayed sunflower leaf discs, aphid population of mixed ages, 6 days after infestation
Procedure: Sunflower leaf discs were placed onto agar in a 24-well microtiter plate and sprayed with aqueous test solutions prepared from 10,000 ppm DMSO stock solutions. After drying, the leaf discs were infested with an aphid population of mixed ages. The samples were assessed for mortality 6 days after infestation.

Myzus persicae [2] = assay: Myzus persicae (Green Peach Aphid). Systemic Activity; settings: 144 h, test rate of 24 ppm, roots of infested pea seedlings in test solution, 6 days
Procedure: Roots of pea seedlings infested with an aphid population of mixed ages were placed directly into aqueous test solutions prepared from 10,000 DMSO stock solutions. The samples were assessed for mortality 6 days after placing seedlings into test solutions.

Bemisia tabaci = Bemisia tabaci (Cotton White Fly): Feeding/Contact Activity; settings: foliar, 144 h, application rate of 200 ppm, sprayed cotton leaf discs, adult white flies, 6 days after incubation
Procedure: Cotton leaf discs were placed on agar in 24-well microtiter plates and sprayed with aqueous test solutions prepared from 10,000 ppm DMSO stock solutions. After drying the leaf discs were infested with adult white flies. The samples were checked for mortality 6 days after incubation.

Plutella xylostella = Plutella xylostella (Diamond Back Moth); settings: 120 h, application rate of 200 ppm, artificial diet, L2 larvae, 5 days after infestation, read-out: effect in at least one of the two categories (mortality or growth inhibition)
Procedure: (§1) 24-well microtiter plates with artificial diet were treated with aqueous test solutions prepared from 10,000 ppm DMSO stock solutions by pipetting. After drying, the plates were infested with L2 larvae (10 to 15 per well). The samples were assessed for mortality and growth inhibition in comparison to untreated samples 5 days after infestation.

Diabrotica balteata = Diabrotica balteata (Corn Root Worm); settings: 96 h, application rate of 200 ppm, sprayed maize sprouts, L2 larvae, 4 days after infestation, read-out: effect in at least one of the two categories (mortality or growth inhibition)
Procedure: as §1, with “Maize sprouts placed onto an agar layer in 24-well” for “24-well”, “plates” for “plates with artificial diet”, “spraying.” for “pipetting.”, “(6” for “(10”, “10” for “15”, “4” for “5”

Euschistus heros = Euschistus heros (Neotropical Brown Stink Bug); settings: 120 h, application rate of 200 ppm, sprayed soybean leaves, N2 nymphs, 5 days after infestation, read-out: effect in at least one of the two categories (mortality or growth inhibition)
Procedure: Soybean leaves on agar in 24-well microtiter plates were sprayed with aqueous test solutions prepared from 10,000 ppm DMSO stock solutions. After drying the leaves were infested with N2 nymphs. The samples were assessed for mortality and growth inhibition in comparison to untreated samples 5 days after infestation.

CCS(=O)(=O)c1cc(C)c(N)nc1-c1nc2cc(C(F)(F)F)n(C3CC3)c(=O)c2n1C [Compound A49, 2-(6-amino-5-methyl-3-ethylsulfonyl-2-pyridyl)-5-cyclopropyl-3-methyl-6-(trifluoromethyl)imidazo[4,5-c]pyridin-4-one]
≥ 80%: percent control (mortality, anti-feeding effect or growth inhibition) at 200 ppm (Spodoptera littoralis) | mortality at 200 ppm (Myzus persicae [1]) | mortality at 24 ppm (Myzus persicae [2]) | mortality at 200 ppm (Bemisia tabaci) | percent effect (mortality or growth inhibition) at 200 ppm (Plutella xylostella) | effect mortality or growth inhibition at 200 ppm (Diabrotica balteata)

CCn1c(C(F)(F)F)cc2nc(-c3ncc(C(=O)NC4(C#N)CC4)cc3S(=O)(=O)CC)n(C)c2c1=O [Compound A25, N-(1-cyanocyclopropyl)-6-[5-ethyl-3-methyl-4-oxo-6-(trifluoromethyl)imidazo[4,5-c]pyridin-2-yl]-5-ethylsulfonyl-pyridine-3-carboxamide]
≥ 80%: percent control (mortality, anti-feeding effect or growth inhibition) at 200 ppm (Spodoptera littoralis) | percent effect (mortality or growth inhibition) at 200 ppm (Euschistus heros)

CCn1c(C(F)(F)F)cc2nc(-c3ncc(N(C)/C=N/OC)cc3S(=O)(=O)CC)n(C)c2c1=O [Compound A27, N-[6-[5-ethyl-3-methyl-4-oxo-6-(trifluoromethyl)imidazo[4,5-c]pyridin-2-yl]-5-ethylsulfonyl-3-pyridyl]-N′-methoxy-N-methyl-formamidine]
≥ 80%: percent control (mortality, anti-feeding effect or growth inhibition) at 200 ppm (Spodoptera littoralis) | percent effect (mortality or growth inhibition) at 200 ppm (Plutella xylostella)

CCn1c(C(F)(F)F)cc2nc(-c3ncc(NS(=O)(=O)C4CC4)cc3S(=O)(=O)CC)n(C)c2c1=O [Compound A36, N-[6-[5-ethyl-3-methyl-4-oxo-6-(trifluoromethyl)imidazo[4,5-c]pyridin-2-yl]-5-ethylsulfonyl-3-pyridyl]cyclopropanesulfonamide]
≥ 80%: mortality at 200 ppm (Myzus persicae [1])

CCS(=O)(=O)c1ccc(NOC)nc1-c1nc2cc(C(F)(F)F)n(C3CC3)c(=O)c2n1C [Compound A46, 5-cyclopropyl-2-[3-ethylsulfonyl-6-(methoxyamino)-2-pyridyl]-3-methyl-6-(trifluoromethyl)imidazo[4,5-c]pyridin-4-one]
≥ 80%: percent control (mortality, anti-feeding effect or growth inhibition) at 200 ppm (Spodoptera littoralis) | percent effect (mortality or growth inhibition) at 200 ppm (Euschistus heros) | percent effect (mortality or growth inhibition) at 200 ppm (Plutella xylostella) | effect mortality or growth inhibition at 200 ppm (Diabrotica balteata)

CCn1c(C(F)(F)F)cc2nc(-c3ncc(N(C)S(=O)(=O)C4CC4)cc3S(=O)(=O)CC)n(C)c2c1=O [Compound A37, N-[6-[5-ethyl-3-methyl-4-oxo-6-(trifluoromethyl)imidazo[4,5-c]pyridin-2-yl]-5-ethylsulfonyl-3-pyridyl]-N-methyl-cyclopropanesulfonamide]
≥ 80%: percent control (mortality, anti-feeding effect or growth inhibition) at 200 ppm (Spodoptera littoralis) | percent effect (mortality or growth inhibition) at 200 ppm (Euschistus heros) | mortality at 200 ppm (Bemisia tabaci) | percent effect (mortality or growth inhibition) at 200 ppm (Plutella xylostella) | effect mortality or growth inhibition at 200 ppm (Diabrotica balteata)

CCn1c(C(F)(F)F)cc2nc(-c3nc(N)c(C#N)cc3S(=O)(=O)CC)n(C)c2c1=O [Compound A72]
≥ 80%: percent control (mortality, anti-feeding effect or growth inhibition) at 200 ppm (Spodoptera littoralis) | percent effect (mortality or growth inhibition) at 200 ppm (Euschistus heros) | mortality at 24 ppm (Myzus persicae [2]) | percent effect (mortality or growth inhibition) at 200 ppm (Plutella xylostella)

CCn1c(C(F)(F)F)cc2nc(-c3ncc(N(C)N(C)C(=O)C4CC4)cc3S(=O)(=O)CC)n(C)c2c1=O [Compound A22, N′-[6-[5-ethyl-3-methyl-4-oxo-6-(trifluoromethyl)imidazo[4,5-c]pyridin-2-yl]-5-ethylsulfonyl-3-pyridyl]-N,N′-dimethyl-cyclopropanecarbohydrazide]
≥ 80%: percent control (mortality, anti-feeding effect or growth inhibition) at 200 ppm (Spodoptera littoralis) | percent effect (mortality or growth inhibition) at 200 ppm (Euschistus heros) | mortality at 24 ppm (Myzus persicae [2]) | percent effect (mortality or growth inhibition) at 200 ppm (Plutella xylostella)

CCn1c(C(F)(F)F)cc2nc(-c3ncc(NC4(C#N)CC4)cc3[S+]([O-])CC)n(C)c2c1=O (centres unmarked) [Compound A57, 1-[[6-[5-ethyl-3-methyl-4-oxo-6-(trifluoromethyl)imidazo[4,5-c]pyridin-2-yl]-5-ethylsulfinyl-3-pyridyl]amino]cyclopropanecarbonitrile]
≥ 80%: percent control (mortality, anti-feeding effect or growth inhibition) at 200 ppm (Spodoptera littoralis) | percent effect (mortality or growth inhibition) at 200 ppm (Plutella xylostella) | effect mortality or growth inhibition at 200 ppm (Diabrotica balteata)

CCn1c(C(F)(F)F)cc2nc(-c3ncc(C(=O)N(C)C4CC4)cc3S(=O)(=O)CC)n(C)c2c1=O [Compound A17, N-cyclopropyl-6-[5-ethyl-3-methyl-4-oxo-6-(trifluoromethyl)imidazo[4,5-c]pyridin-2-yl]-5-ethylsulfonyl-N-methyl-pyridine-3-carboxamide]
≥ 80%: percent effect (mortality or growth inhibition) at 200 ppm (Euschistus heros) | mortality at 24 ppm (Myzus persicae [2]) | percent effect (mortality or growth inhibition) at 200 ppm (Plutella xylostella)

CCn1c(C(F)(F)F)cc2nc(-c3ncc(NC4CC4)cc3[S+]([O-])CC)n(C)c2c1=O (centres unmarked) [Compound A58, 2-[5-(cyclopropylamino)-3-ethylsulfinyl-2-pyridyl]-5-ethyl-3-methyl-6-(trifluoromethyl)imidazo[4,5-c]pyridin-4-one]
≥ 80%: effect mortality or growth inhibition at 200 ppm (Diabrotica balteata)

CCn1c(C(F)(F)F)cc2nc(-c3nc(Br)c(N)cc3S(=O)(=O)CC)n(C)c2c1=O [Compound A54, 2-(5-amino-6-bromo-3-ethylsulfonyl-2-pyridyl)-5-ethyl-3-methyl-6-(trifluoromethyl)imidazo[4,5-c]pyridin-4-one]
≥ 80%: percent control (mortality, anti-feeding effect or growth inhibition) at 200 ppm (Spodoptera littoralis) | percent effect (mortality or growth inhibition) at 200 ppm (Plutella xylostella) | effect mortality or growth inhibition at 200 ppm (Diabrotica balteata)

CCn1c(C(F)(F)F)cc2nc(-c3nc(N(C)CC(F)(F)F)ccc3S(=O)(=O)CC)n(C)c2c1=O [Compound A33]
≥ 80%: percent control (mortality, anti-feeding effect or growth inhibition) at 200 ppm (Spodoptera littoralis) | percent effect (mortality or growth inhibition) at 200 ppm (Plutella xylostella) | effect mortality or growth inhibition at 200 ppm (Diabrotica balteata)

CCS(=O)(=O)c1ccc(NC(=O)OC(C)(C)C)nc1-c1nc2cc(C(F)(F)F)n(C3CC3)c(=O)c2n1C [Compound A63, Tert-butyl N-[6-[5-cyclopropyl-3-methyl-4-oxo-6-(trifluoromethyl)imidazo[4,5-c]pyridin-2-yl]-5-ethylsulfonyl-2-pyridyl]carbamate]
≥ 80%: percent control (mortality, anti-feeding effect or growth inhibition) at 200 ppm (Spodoptera littoralis) | mortality at 200 ppm (Bemisia tabaci) | percent effect (mortality or growth inhibition) at 200 ppm (Plutella xylostella) | effect mortality or growth inhibition at 200 ppm (Diabrotica balteata)

CCn1c(C(F)(F)F)cc2nc(-c3nc(C(C)=O)ccc3S(=O)(=O)CC)n(C)c2c1=O [Compound A70, 2-(6-acetyl-3-ethylsulfonyl-2-pyridyl)-5-ethyl-3-methyl-6-(trifluoromethyl)imidazo[4,5-c]pyridin-4-one]
≥ 80%: percent effect (mortality or growth inhibition) at 200 ppm (Plutella xylostella)

CCn1c(C(F)(F)F)cc2nc(-c3nc(C(=O)N(C)C4CC4)ccc3S(=O)(=O)CC)n(C)c2c1=O [Compound A18, N-cyclopropyl-6-[5-ethyl-3-methyl-4-oxo-6-(trifluoromethyl)imidazo[4,5-c]pyridin-2-yl]-5-ethylsulfonyl-N-methyl-pyridine-2-carboxamide]
≥ 80%: percent control (mortality, anti-feeding effect or growth inhibition) at 200 ppm (Spodoptera littoralis) | mortality at 200 ppm (Myzus persicae [1]) | mortality at 24 ppm (Myzus persicae [2]) | mortality at 200 ppm (Bemisia tabaci) | percent effect (mortality or growth inhibition) at 200 ppm (Plutella xylostella)

CCn1c(C(F)(F)F)cc2nc(-c3ncc(NC(=O)C4(C#N)CC4)cc3S(=O)(=O)CC)n(C)c2c1=O [Compound A55, 1-cyano-N-[6-[5-ethyl-3-methyl-4-oxo-6-(trifluoromethyl)imidazo[4,5-c]pyridin-2-yl]-5-ethylsulfonyl-3-pyridyl]cyclopropanecarboxamide]
≥ 80%: percent control (mortality, anti-feeding effect or growth inhibition) at 200 ppm (Spodoptera littoralis) | mortality at 200 ppm (Myzus persicae [1]) | mortality at 24 ppm (Myzus persicae [2]) | percent effect (mortality or growth inhibition) at 200 ppm (Plutella xylostella)

CCn1c(C(F)(F)F)cc2nc(-c3ncc(C(=O)NCC#N)cc3S(=O)(=O)CC)n(C)c2c1=O [Compound A28, N-(cyanomethyl)-6-[5-ethyl-3-methyl-4-oxo-6-(trifluoromethyl)imidazo[4,5-c]pyridin-2-yl]-5-ethylsulfonyl-pyridine-3-carboxamide]
≥ 80%: mortality at 200 ppm (Myzus persicae [1]) | percent effect (mortality or growth inhibition) at 200 ppm (Euschistus heros) | mortality at 24 ppm (Myzus persicae [2]) | percent effect (mortality or growth inhibition) at 200 ppm (Plutella xylostella)
